{"source": "paper PMC3425544", "about": "“The S100A10 Subunit of the Annexin A2 Heterotetramer Facilitates L2-Mediated Human Papillomavirus Infection” (PLoS ONE, 2012)", "system": "A2t (annexin A2 heterotetramer)", "experiment": "EPR binding of L2 peptide to A2t", "set-up": "species or system human", "conditions": "mean of three separate experiments", "source_text": "Next, we wanted to determine if there was a specific interaction between the L2_108–126 peptide and A2t using electron paramagnetic resonance (EPR) spectroscopy. EPR is a method of magnetic resonance spectroscopy measuring unpaired electrons whose underlying basic concepts are not unlike the more widely used technique of nuclear magnetic resonance (NMR) (reviewed in [43]). When coupled with site-directed paramagnetic-labeling, such as the attachment of a moiety with an unpaired electron to a cysteine residue, EPR can be used to obtain structural information within a small vicinity of the paramagnetic-label’s positions along the protein sequence. As a paramagnetic-label becomes locally constrained, such as when bound to another protein, its spectra will drastically change as visualized by a decrease in line amplitude and increased line-broadening. Therefore, EPR provides an in vitro biochemical method that measures protein-protein interactions by monitoring changes in the spectra recorded for a labeled protein in different experimental settings.\nFor our purposes, an N-terminal cysteine (with a 3 native aa spacer) contained in the L2_108–126 peptide (C-IVS-[…]) was paramagnetic-labeled (an unpaired-electron-containing small molecule was cross-linked via a disulfide bond to the peptide), and its spectra were analyzed after incubation with and without purified human recombinant A2t or controls. […]\nRecombinant annexin A2 was expressed in BL21(DE3) Escherichia coli cells and purified using reversible Ca^2+-dependent binding to negatively charged phospholipid vesicles followed by size exclusion chromatography. […] Concentrations of all proteins and peptides, including the A2t complex, were determined using bicinchoninic acid assays (Pierce Thermo Scientific, Rockford, IL) compared to measured absorbance of albumin standards at 562 nm. […]", "data": [{"substance": "C-IVS-LVEETSFIDAGAPTSVPSI [L2_108–126, HPV16 L2 aa 108–126 peptide with N-terminal cysteine and IVS spacer]", "values": [{"measurement": "relative % bound to A2t", "setting": "20 µM paramagnetic-labeled (MTSL) L2 peptide, 100 µM A2t, HEPES pH 7.4, room temperature", "value": 78.0, "unit": "%"}, {"measurement": "relative % bound to A2t in presence of ScrL2", "setting": "non-paramagnetic-labeled ScrL2 to WT L2_108–126 5∶1 molar ratio", "value": 75.8, "unit": "%"}]}]}
